Measurements as given in patent US7838732B2, “Transgenic plants expressing a cellulase” (Syngenta Participations AG, priority 1996, dated 2010).

Experiments:
[1] = test system: PR-1a/T7 polymerase x plastid T7/GUS plants; assay: GUS protein content of plants after BTH induction (Western blot); type: in vivo, Nicotiana tabacum; settings: plastid transformed plants
From the text: The N. tabacum ‘Xanthi’ plastid transformant line 4276P described by McBride et al. ((1994) PNAS 91: 7301-7305) was pollinated by homozygous NT-110X6b5 plants containing the PR-1a/T7 RNA polymerase. 4276P differs from pC8 only with respect to (a) the promoter used to express the aadA selectable marker (which has the 16S ribosomal RNA gene promoter rather than the psbA gene promoter used in pC8), (b) the presence of a psbA gene 3′ untranslated region between the GUS gene and the T7 terminator, and (c) the absence of a lac operator and duplicated StuI restriction site sequence in the T7 promoter. F1 plants from this cross heterozygous for the PR-1a/T7 polymerase nuclear expression cassette and homoplastidic for the T7/GUS plastid expression cassette were germinated in soil. Upon reaching a height of 20 to 40 cm the plants were sprayed with either an inert wettable powder suspension or a formulation of the inducer compound BTH with wettable powder. Control untransformed N. tabacum ‘Xanthi’, NT-110X6b-5, and 4276P plants germinated in soil at the same time were sprayed in a similar manner. Plant material (one leaf from each of three independent plants of each genotype) was harvested just prior to spraying and at 8 hours and 1, 2, 3, 7, and 28 days following spraying, and flash frozen as described above. […]

[2] = test system: PR-1a/T7 polymerase x plastid T7/GUS plants (pPH110X6b x 4276P); assay: GUS mRNA content of plants sprayed with BTH (Northern blot, ethidium bromide scan); type: in vivo, Nicotiana tabacum
From the text: (§1) The N. tabacum ‘Xanthi’ plastid transformant line 4276P described by McBride et al. ((1994) PNAS 91: 7301-7305) was pollinated by homozygous NT-110X6b5 plants containing the PR-1a/T7 RNA polymerase. 4276P differs from pC8 only with respect to (a) the promoter used to express the aadA selectable marker (which has the 16S ribosomal RNA gene promoter rather than the psbA gene promoter used in pC8), (b) the presence of a psbA gene 3′ untranslated region between the GUS gene and the T7 terminator, and (c) the absence of a lac operator and duplicated StuI restriction site sequence in the T7 promoter. F1 plants from this cross heterozygous for the PR-1a/T7 polymerase nuclear expression cassette and homoplastidic for the T7/GUS plastid expression cassette were germinated in soil. Upon reaching a height of 20 to 40 cm the plants were sprayed with either an inert wettable powder suspension or a formulation of the inducer compound BTH with wettable powder. Control untransformed N. tabacum ‘Xanthi’, NT-110X6b-5, and 4276P plants germinated in soil at the same time were sprayed in a similar manner. Plant material (one leaf from each of three independent plants of each genotype) was harvested just prior to spraying and at 8 hours and 1, 2, 3, 7, and 28 days following spraying, and flash frozen as described above.
(§2) Total RNA was extracted from frozen tissue of BTH and wettable powder-sprayed control and PR-1a/T7 polymerase×plastid T7/GUS plants, and Northern blot analysis on 5 μg RNA samples was carried out as described (Ward et al. (1991) The Plant Cell 3, 1085-1094) using as a probe a 500 bp radiolabelled 5′ fragment of the GUS gene. […] Example C12 Determination of GUS protein content of transgenic plants In order to determine the amount of GUS present in the tissues of transgenic plants, chemiluminescent (Amersham) Western blot analysis was performed according to the manufacturer's instructions and Harlow and Lane (1988) Antibodies: A laboratory manual, Cold Spring Harbor Laboratory, Cold Spring Harbor, using GUS antisera purchased from Molecular Probes and purified GUS protein standards (Sigma). Proteins from frozen, ground leaf material harvested as above were solubilized by extraction in 50 mM Tris pH 8.0, 1 mM EDTA, 1 mM PTT, 1 mM AEBSP, and 1 mM DTT and 5 to 25 μg protein run on each lane of 10% polyacrylamide gels. GUS protein accumulation in the plastid transformed plants is sustained over 7-28 days and beyond, and is extraordinarily high (much higher than peak GUS accumulation for nuclear PR-1a/GUS), exceeding 20% of total protein by 28 days.

[3] = test system: nuclear PR-1a/GUS transformants; assay: GUS protein accumulation in nuclear PR-1a/GUS transformants after induction (Western blot); type: in vivo; settings: nuclear PR1a/GUS transformants
Protocol: as §2

[4] = test system: PR-1a/T7 polymerase x plastid T7/cellulase plants; assay: E5 cellulase mRNA content of plants after BTH induction (Northern blot); type: in vivo, Nicotiana tabacum
From the text: Homozygous NT-10× and NT-110N plants containing the PR-1a-T7 RNA Pol construct were used to pollinate homoplastidic Nt_pC8E5 and Nt_pC+E5 plastid transformant lines carrying the maternally inherited pC8E5 and pC+E5 cellulase constructs. The Nt_pC+E5×NT-110X or NT--110N, and Nt_pC8E5×NT-110X or NT110N F1 progeny (which were heterozygous for the PR-1/T7 polymerase nuclear expression cassette and homoplastidic for the T7/cellulase plastid expression cassette) were germinated on soil. Upon reaching a height of […], the plants were sprayed with the inducer compound BTH to elicit T7 Pol-regulated expression of the E5 cellulase gene that is localized to the plastids. […]
Total RNA was extracted from frozen tissue of BTH and wettable powder-sprayed control and PR-1a/7 polymerase×plastid T7/cellulase plants, and Northern blot analysis on 5 μg RNA samples was carried out as described (Ward et al. (1991) The Plant Cell 3, 1085-1094) using as a probe a radiolabelled DNA fragment containing the E5 cellulase coding sequence. Relative E5 cellulase mRNA accumulation at each time point was assessed by quantifying the radioactivity in bands hybridizing with the radiolabelled E5 cellulase probe in order to determine time courses of fold mRNA induction. […] Prior to induction, no cellulase mRNA is detected.

[5] = test system: PR-1a/T7 polymerase x plastid T7/GUS plants (pPH110X6b x 4276P); assay: GUS activity in leaf extracts of plants sprayed with BTH (fluorometric MUG assay); type: in vivo, Nicotiana tabacum
From the text: as §1
Frozen leaf tissue was ground in a mortar with a pestle in the presence of liquid nitrogen to produce a fine powder. Leaf extracts were prepared in GUS extraction buffer (50 mM sodium phosphate pH7.0, 0.1% Triton-X 100, 0.1% sarkosyl, 10 mM β-mercaptoethanol) as described by Jefferson, R. A. et al. (1986), PNAS USA 83, 8447-8451. The reactions were carried out in the wells of opaque microtiter plates by mixing 10 ul of extract with 65 ul of GUS assay buffer (50 mM sodium phosphate pH 7.0, 10 mM EDTA, 0.1% Triton X-100, 10 mM β-mercaptoethanol) containing 4-methyl umbelliferyl glucuronide […] at a final concentration of 2 mM in a total volume of 75 ul. The plate was incubated at 37° C. for 30 minutes and the reaction was stopped by the addition of 225 ul of 0.2 M sodium carbonate. The concentration of fluorescent indicator released was determined by reading the plate on a Flow Labs Fluoroskan II ELISA plate reader. Duplicate fluorescence values for each sample were averaged, and background fluorescence (reaction without MUG) was subtracted to obtain the concentration of MU for each sample. The amount of protein in each extract was determined using the bicinchoninic acid technique (BCA, Pierce Biochemicals) according to the manufacturer's recommendations except that protein extracts were pretreated with iodoacetamide (Sigma) to eliminate background signal caused by the reductant (β-mercaptoethanol) present in the extraction buffer. The specific activity was determined for each sample and was expressed in pmoles MU/mg protein/minute. For each tissue sample assayed from a particular time point following BTH application, the specific activity of the BTH-induced sample was divided by the specific activity of the pre-BTH treatment control sample, thus yielding the induction of GUS expression. (See Table I)

E5 cellulase mRNA accumulation following induction ([4]; plant material of example C6, none detected prior to induction): significant cellulase mRNA accumulation
Structure (SMILES): CSC(=O)c1cccc2nnsc12 [BTH, benzo(1,2,3)thiadiazole-7-carbothioic acid S-methyl ester]
GUS protein accumulation, of total protein ([1]; by 28 days): exceeding 20%
time of peak/sustained GUS protein accumulation ([1]; from induction): 7 to 28 days
% Total RNA (GUS RNA) ([2]; 0.3 days after BTH spray): <0.013%
% Total RNA (GUS RNA) ([2]; 1.0 days after BTH spray): 0.108%
% Total RNA (GUS RNA) ([2]; 2.0 days after BTH spray): 0.873%
% Total RNA (GUS RNA) ([2]; 3.0 days after BTH spray): 2.663%
% Total RNA (GUS RNA) ([2]; 7.0 days after BTH spray): 7.745%
% Total RNA (GUS RNA) ([2]; 28.0 days after BTH spray): 24.596%
peak level of chemically inducible GUS RNA in the plastid, of total ethidium-stainable RNA ([2]; between 7 and 28 days after induction with BTH): 14%
peak GUS RNA relative to peak chemically inducible GUS mRNA accumulation for nuclear PR-1a/GUS transformants ([2]; plastid vs nuclear PR-1a/GUS transformants): over 1000 fold
GUS protein accumulation by 28 days ([3]; 28 days): declines to the limits of detection
time of peak GUS protein accumulation ([3]; from induction): about 3 days
time of peak cellulase mRNA accumulation ([4]; after induction): 14 days
GUS activity (pmol MU/mg/min) ([5]; 0.3 days after BTH spray): 434 pmol MU/mg/min
GUS activity (pmol MU/mg/min) ([5]; 1.0 days after BTH spray): 14,516 pmol MU/mg/min
GUS activity (pmol MU/mg/min) ([5]; 2.0 days after BTH spray): 230,031 pmol MU/mg/min
GUS activity (pmol MU/mg/min) ([5]; 3.0 days after BTH spray): 456,486 pmol MU/mg/min
GUS activity (pmol MU/mg/min) ([5]; 7.0 days after BTH spray): 2,424,725 pmol MU/mg/min
GUS activity (pmol MU/mg/min) ([5]; 28.0 days after BTH spray): 1,922,466 pmol MU/mg/min
